Several values for one entry are separate records, joined by “and”; a condition that tells them apart may be missing. Identical values can stand only once. Like-named read-outs stand apart in the source and are kept apart here. Marks after values point to notes of the source that are not given here.
How the values were obtained:
CYP2B1/2B2 = assay: Western blot analysis of rat hepatic proteins after PB treatment; assay type: in vivo; parameters: key: Highly Induced: Not detected in control but strong band after PB treatment.; Moderately Induced: Not detected in control but bands with a medium intensity detected after PB treatment; settings: rat hepatic microsomal proteins, PB treated vs control
Method: (§1) SDS-PAGE was carried out on 10% or 15% gels. The separated proteins were electroblotted onto cellulose membrane and Western blot analyses were carried out using horseradish peroxidase-system with electrochemiluminescent substrates.
(§2) This microarray result was obtained by combining results from Control 1 and PB 1 assays and Control 2 and PB 2 assays. Expression levels of CYP2B1/2B2, CYP2B1, COX-2, CYP2D, CYP3A1/2/23, CYP2C11 and G3PDH in Rat #1 (Control 1), Rat #2 (PB 1), Rat #3 (Control 2) and Rat #4 (PB 2) were verified by Western blot analyses of microsomal and cytosolic proteins. Protein bands obtained by Western blot analyses were quantitated using a densitometer (Molecular Dynamics). […] COX-2 expression usually detected in microsomes also detected in cytosol. The cytosolic COX-2 levels were normalized by G3PDH levels.

CYP2D = assay: as above; assay type: in vivo; settings: rat hepatic microsomal proteins, PB treated vs control; two sets; mean and difference from the mean
Method: as §1, §2

CYP3A = assay: as above; assay type: in vivo; settings: rat hepatic microsomal proteins, PB treated vs control; two sets; mean and difference from the mean
Method: as §1, §2

CYP3A (CYP3A1/2/23) = settings: anti-serum spots, IgG concentration not given
Tubulin-alpha = settings: rat hepatic proteins after PB treatment, 500 μg/ml IgG (ascites fluid), Flag internal control
Alpha-actin = settings: rat hepatic proteins after PB treatment; 500 μg/ml IgG (ascites fluid); Flag internal control
Tubulin-beta = settings: rat hepatic proteins after PB treatment; 500 μg/ml IgG; Flag internal control

SMILES: CCC1(c2ccccc2)C(=O)NC(=O)NC1=O [phenobarbital]
- fold-increase of protein expression level, Western Blot Analysis, CYP2B1/2B2 (CYP2B1/2B2): Highly Induced^b
- fold-increase of protein expression level, Western Blot Analysis, CYP2D (CYP2D): failed to increase
- fold-increase of protein expression level, Western Blot Analysis, CYP3A (CYP3A): 7.00 ± 4.80^d fold
- CYP3A expression after phenobarbital treatment, array analysis (CYP3A (CYP3A1/2/23)): increased higher than two-fold
- Fold-Change of Protein Expression Level, Tubulin-alpha (Tubulin-alpha): 1.7 fold and 1.7^a fold
- Fold-Change of Protein Expression Level, Tubulin-alpha (Tubulin-alpha; listed as PB): 1.7 fold
- Fold-Change of Protein Expression Level, Alpha-actin (Alpha-actin): 0.8 fold
- Fold-Change of Protein Expression Level, Tubulin-beta (Tubulin-beta): 0.7 fold
